In patent US8084049B2, “Complexes of fatty acid esters of polyhydroxyalkanes and pyridine carboxy derivatives” (priority 2002, dated 2011):
Entries after “also recorded” stand apart in the source; their conditions may differ.

Legend:
[1] = tested on: Candida albicans; test: antimicrobial MIC test (Example 113); assay type: cell-based; conditions: 1 to 4 days culture; initial test concentration 3 mM in 1% DMSO and dilutions
Method: (§1) Test substance or vehicle is added to test wells containing the selected microorganisms (1×10^4 to 5×10^5 CFU/ml)in cultures grown under controlled conditions. The final innoculum concentration is determined by reference to a standard optical density curve and adjusted as required. After 1 to 4 days, growth of the culture is examined and scored positive (+) for inhibition of growth or turbidity, or negative (−) for no effect upon growth or turbidity. An initial test concentration of 3 mM in 1% DMSO is used and dilutions are tested to establish the minimal inhibitory concentration (MIC).

[2] = tested on: Epidermophyton floccosum; test: antimicrobial MIC test (Example 113); assay type: cell-based; conditions: 1 to 4 days culture; initial test concentration 3 mM in 1% DMSO and dilutions
Method: as §1

[3] = tested on: Microsporum canis; test: antimicrobial MIC test (Example 113); assay type: cell-based; conditions: 1 to 4 days culture; initial test concentration 3 mM in 1% DMSO and dilutions
Method: as §1

[4] = tested on: Trichophyton rubrum; test: antimicrobial MIC test (Example 113); assay type: cell-based; conditions: 1 to 4 days culture; initial test concentration 3 mM in 1% DMSO and dilutions
Method: as §1

[5] = tested on: Streptococcus faecalis; test: antimicrobial MIC test (Example 113); assay type: cell-based; conditions: 1 to 4 days culture; initial test concentration 3 mM in 1% DMSO and dilutions
Method: as §1

[6] = tested on: 12-O-tetradecanoylphorbol-13-acetate (TPA) induced mouse ear inflammation; test: acute TPA induced mouse ear inflammation model (Example 111); assay type: in vivo, female BALB/ca mice; conditions: vs vehicle
From the text: This was done by comparing a high dose, corresponding to Emax (the maximal obtainable effect representing the plateau of the dose-response curve) with the individual effects of the molar amount present of each component of the complex. If the effect of the complex is higher than the sum of the components the effect is synergistic. […] The positive control used in this study was betamethasone 17-valerate applied as a commercial preparation with maximum human dose (Celeston® Cutaneous Solution 0.1%, Shering-Plough).
The test substances were administered 20 minutes before and 20 minutes after application of TPA to the ear.
All groups were treated with 20 μl TPA solution 400 μg/ml in acetone, on the right ear.
Three hours after the TPA application the mice were sacrificed, the ears cut from the tip with a punch biopsy knife (8 mm diameter) and weighed.
Differences in relative ear oedema between the vehicle treated group and the other groups were tested for significance employing a non-parametric statistical method of analysis, the Mann-Whitney U test. The required level of significance was p<0.05.

[7] = tested on: sub-chronic TPA induced mouse ear inflammation; test: sub-chronic TPA (repeated application) mouse ear inflammation model (Example 112); assay type: in vivo, female BALB/ca mice
Method: Investigation of two complexes according to the invention in a recognized pharmacodynamic model of sub-chronic inflammation.
The objective of this study was to assess the therapeutic value of the complexes of the invention in a very demanding pharmacodynamic model of dermal inflammation. Repeated application of TPA to the ears of the mice within 48 hours yields an inflammatory lesion with infiltration of leukocytes and persistent swelling. The reapplication of TPA ([…]) after 48 hours produces an inflammation and ear oedema, which is more dramatic due to the involvement and activation of a vast number of inflammatory cells. Therefore the model is suitable for drug evaluation in relation to more aggravated or chronic inflammatory conditions. The test substance for evaluation is co-applied with the second TPA application. […]
Mean weights and standard deviations were calculated. Relative ear oedema was assessed as the weight difference between right and left ear of each mouse expressed as percent of the left ear. Percent inhibition of the relative ear oedema compared with the vehicle treated groups was calculated for the test substance and positive control treated group. […]

With CCCCCCCC(=O)OCC(O)CO (racemic) [Rac-1-glyceryl-monocaprylate] the MIC [1] was “Not active at tested”, the MIC [2] was “Not active at tested” and the MIC [3] was “Not active at tested”. For the same molecule, the MIC [4] was “Not active at tested”, the MIC [5] was “Not active at tested” and the “% Inhibition of relative ear oedema” value ([6]; 4.58 μmol/ear, given 20 min before and 20 min after TPA, ears weighed 3 h after TPA) was 22%.
With C[C@]12CCC(=O)C=C1CC[C@@H]1[C@@H]2[C@@H](O)C[C@@]2(C)[C@H]1CC[C@]2(O)C(=O)CO [hydrocortisone] the “effect in the sub-chronic TPA model” value ([7]; observation of the inventor on mild steroids) was “no effect; also recorded: no measurable effects”.
With NC(=O)c1cccnc1 [Niacinamide] the “% Inhibition of relative ear oedema” value ([6]; 64.1 μmol/ear, given 20 min before and 20 min after TPA, ears weighed 3 h after TPA) was 18%.
With CCCCC(=O)O[C@]1(C(=O)CO)[C@@H](C)C[C@H]2[C@@H]3CCC4=CC(=O)C=C[C@]4(C)[C@@]3(F)[C@@H](O)C[C@@]21C [Betamethasone 17-valerate] the “% Inhibition of relative ear oedema” value ([6]; 0.02 mg/ear (Celeston Cutaneous Solution 0.1%), 20 min before and after TPA, 3 h after TPA) was 66% and the “% Inhibition of relative ear oedema” value ([7]; 0.02 mg/ear, 20 min before and after TPA re-application at 48 h, 3 h after TPA, vs vehicle) was 31%.
